Source: patent US20020142347A1, “Biosensor” (BIOSENSOR ApS, priority 2000, published 2002)
Residue numbers refer to the chain shown, from its start. Names and notes keep the numbering of the source. Values joined by “and” are separate entries in the source; they are usually repeats but may differ in a detail not shown here. Equal entries are not always repeated. Where two headings read alike, the source gives them in different places. Values belong to the molecule of their own block, whether it stands above or below them.

Columns and labels:
FACI-24 [1] = target: T1, FACI-24 (Bos taurus, UniProt P07107, M25C); test: Fluorescence titration equilibrium binding analysis of CoA and acyl-CoA esters to FACI-24; parameters: species or system bovine
T1 construct: made in house; host or cells: E. coli BL21(DE3)pLysS, pET3a vector
T1 sequence (P07107 2-87 M25C): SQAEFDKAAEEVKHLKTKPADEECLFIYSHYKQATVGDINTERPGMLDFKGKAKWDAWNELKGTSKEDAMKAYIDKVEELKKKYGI
Protocol: Development of a mathematical expression describing the relationship between acyl-CoA concentration and FACI-24 fluorescence was performed essentially as by Richieri et al 1992, J Biol Chem, 267:23495-23501. However, where ligand binding to ADIFAB induces both a fluorescence intensity increase around 505 nm and a fluorescence intensity decrease around 432 nm, ligand binding to FACI-24 only causes an increase in fluorescence around 460 nm.
Derivatisation of an expression for the fluorescence value as a function of the acyl-coA concentration was done using the Scatchard equation as a starting point: [formula]
which has been used to fit the titration data.
The curves represent the best fit analysis from two independent experiment calculated and normalized as described above. The FACI-24 binding affinity increases dramatically when the acyl-chain length increases from C8 to C10 and C12, a smaller but significant drop in Kd is seen by increasing chain length from C12 to C14. C14 to C18 saturated acyl-CoA esters and C18:1-CoA binds with similar and very high affinities to FACI-24. In >0.1 M salt, FACI-24 binds acyl-CoAs with higher affinity and similar specificity as native unmodified bovine ACBP. The Kd for binding of C12-CoA and C16-CoA to native ACBP is 40 and 2.0 nM, respectively (Fulcery et al Biochemical, 1997, 325:423-428; Færgeman et al 1996, Biochemistry, 35:14118-14126). FACI-24 is highly specific for binding long-chain acyl-CoA esters.
(§1) Titration of FACI with acyl-CoAs was done using a SPEX FLOUROLOG (Industries Inc, Edison N.J., USA) with excitation at 387 nm and emission at 460 nm, with both excitation and emission slits set to 4.5 nm. FACI (0.5-4.5 uM, as indicated) was dissolved in 1.5 ml binding buffer (10 mM HEPES 150 mM NaCl, 5 mM KCl, 1 mM Na2HPO4, pH 7.4) and titrated with a 10 μM acyl-CoA dissolved in binding buffer, with or without FACI added, as indicated. Fluorescence emission values (counts per second) measured without FACI added to the ligand stock solution were corrected for titrand dilution.
Up to four parameters were fitted in this way, these were B, representing the point of saturation on the X axis, H, representing the maximum fluorescence, i.e. the fluorescence at saturating concentration of acyl-CoA, L, the minimum fluorescence value, i.e. the fluorescence of FACI-24 alone in buffer, and K, the Kd value lor the acyl-CoA in question. Initial estimates for the fittable parameters were typically: B=1, H=maximum fluorescence value measured, L=minimum fluorescence value measured (at acyl-CoA-concentration=0), and K as judged from the raw data, typically from 0.0001 uM to 0.1 uM for acyl-CoA longer than C10:0-CoA.
For each acyl-CoA at least two titrations and fittings were performed. To consider two or more titrations of the same acyl-CoA together and obtain a Kd value using all these titrations, both axes of the raw data were standardised using the fitted values of B, H and L in this way:
X axis standard=(raw X axis values)/Bfitted
Y axis standard=[(raw Y axis values)−Lfitted]/[Hfitted−Lfitted]
In this way all Y axis values should come to lie between 0 and 1 and the X axis value should be 1 at the point of saturation (FACI-24:acyl-CoA 1:1). Such adjusted data were pooled and fitted using DataFit. Typically, both H and B fitted to values close to 1 and L fitted to values close to 0. K was typically fitted to values somewhere between the two values obtained for the raw data.
This could be overcome by removing B from the fittable parameters list and instead setting it to a constant value of 1 and fitting again. This was typically done for both the raw and the standardised data.

FACI-24 [2] = target: T1, FACI-24; test: Fluorescence emission change of FACI-24 on titration with CoA and acyl-CoA esters; format: binding, bovine; settings: for Downshift in emission maximum of FACI-24: emission maximum without ligand 510 nm, excitation 400 nm
Protocol: (§2) Quantitative determination of binding affinities (KD) were performed by isothermal titration micro calorimetry as previously described (Faergeman et. al., 1996; Biochemistry 35, 14118-14126). Qualitative evaluation of relative binding affinities were determined by isoelectrical focusing using the Pharmacia Fast Gel system according to the prescriptions given by the manufacture. Fluorescence emission changes induced by acyl-CoA binding to badan modified protein were determined as follows: 5 μl portions of acyl-CoAs were added from stock solutions disolved in binding buffer, (10 mM Hepes, 150 mM NaCL, 1 mM NaHPO4, pH 7.4) containing 3.4 μM Badan derivatized protein to a 1 ml 3.4 μM solution of the Badan derivatized ACBP in the same buffer. The fluorescence emission was measured on a SPEX FLOUROLOG (Industries Inc, Edison N.J., USA) with excitation at 400 nm and emission scan from 400 nm to 550 nm. The concentration of acyl-CoA in the aqueous phase was determined from the fluorescence emission sensitivities at 495 and 470 nm repectively essentially by the method described by (Grynkiewickz et. al.,1985, J. Biol. Chem. 260, 3440-3450) according to which:
(§3) Fluorescence titration emission spectra from 415 nm to 550 nm (excitation at 400 nm) were performed for CoA, C4:0-, C8:0-, C12:0-, C16:0-, and C20:0-CoA with all four mutated and badan modified proteins.
The emission maximum of FACI-24 without ligand added was 510 nm and titration with CoA, C4:0-, C8:0-, C12:0-, […], C16:0- and C20:0-CoA caused 0, 16, 34, 42, 46 and 46 nm downshift in emission maximum, respectively (results not shown). C16:0-CoA induced a 5,5 fold increase in emission at 464 nm (FIG. 10).
as §1

FACI53 [3] = target: T2, FACI53 (Bos taurus, UniProt P07107, A54C); test: Fluorescence emission change of FACI-53 on titration with CoA and acyl-CoA esters; format: binding, bovine; settings: for Fluorescence emission maximum of FACI-53 with ligand: 525 nm when no ligand present, excitation 400 nm; for Relative emission of FACI-53 at 495 nm, fold increase: emission at 495 nm
T2 construct: badan (6-bromoacetyl-2-dimethylaminonaphthalene) fluorophore on the introduced Cys-53; made in house; host or cells: E. coli BL21(DE3)pLysS, pET3a vector
T2 sequence (P07107 2-87 A54C): T1 sequence (P07107 2-87 M25C) with C24M, A53C
Protocol: as §2, §3
Titration of FACI-53 dissolved in binding buffer with the above mentioned acyl-CoA esters produced a smooth downward shift in fluorescence emission maximum from 525 nm when no ligand was present to 508, 503, 490, 492, 496 and 514 with increasing concentrations of CoA, C4:0-, C8:0-, C12:0-, C16:0- and C20:0-CoA respectively.

FACI53 [4] = target: T2, FACI53; test: Isoelectrical focusing of acyl-CoA binding to FACI53; parameters: species or system bovine; settings: ligand in four-fold molar excess over protein
Protocol: All the gels were prepared with ligands (1-7) in four-fold molar excess over protein. […] The protein-ligand complex shifted to a pl around 3.8. Legend: 1: Water, 2: CoA-SH, 3: C4-CoA, 4: C8-CoA, 5: C12-CoA, 6: C16-CoA, 7: C20-CoA, 8: Broad pl Calibration Kit (pH 3-10).
as §2, with “The concentration of acyl-CoA in the aqueous phase was determined from the fluorescence emission sensitivities at 495 and 470 nm repectively essentially by the method described by (Grynkiewickz et. al.,1985, J. Biol. Chem. 260, 3440-3450) according to which:” left out

native bovine ACBP = target: T3, native bovine ACBP (Bos taurus, UniProt P07107); settings: literature, read-out: KD for binding to native bovine ACBP, cited from earlier work
T3 sequence (P07107 1-87): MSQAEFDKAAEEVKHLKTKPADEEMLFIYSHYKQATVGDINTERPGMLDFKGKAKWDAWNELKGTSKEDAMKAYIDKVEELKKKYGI

[5] = FACI-24 (1.5 μM) titrated with increasing CoA and acyl-CoA concentration, fitted binding curves, emission 460 nm, read-out: Kd (nM) ± S.E.

Molecule: C18:1-CoA
Kd (FACI-24 [1]; [5]): 0.59 ± 0.19 nM

Molecule: CCCCCCCCCCCCCCCCCCCC(=O)SCCNC(=O)CCNC(=O)[C@H](O)C(C)(C)COP(=O)(O)OP(=O)(O)OC[C@H]1O[C@@H](n2cnc3c(N)ncnc32)[C@H](O)[C@@H]1OP(=O)(O)O [C20:0-CoA]
Downshift in emission maximum of FACI-24 (FACI-24 [2]): 46 nm
Fluorescence response of FACI-53 (FACI53 [3]): hardly responded
Magnitude of emission of FACI-53, fold increase (FACI53 [3]): 0.8 fold
Fluorescence emission maximum of FACI-53 with ligand (FACI53 [3]): 514 nm
Relative emission of FACI-53 at 495 nm, fold increase (FACI53 [3]): 0.8 fold
Binding to FACI53 by isoelectrical focusing (FACI53 [4]): shown to bind

Molecule: CCCCCCCC(=O)SCCNC(=O)CCNC(=O)[C@H](O)C(C)(C)COP(=O)(O)OP(=O)(O)OC[C@H]1O[C@@H](n2cnc3c(N)ncnc32)[C@H](O)[C@@H]1OP(=O)(O)O [C8:0-CoA]
Kd (FACI-24 [1]; [5]): 342 ± 31.9 nM
Downshift in emission maximum of FACI-24 (FACI-24 [2]): 34 nm
Magnitude of emission of FACI-53, fold increase (FACI53 [3]): 2.9 fold
Fluorescence emission maximum of FACI-53 with ligand (FACI53 [3]): 490 nm
Relative emission of FACI-53 at 495 nm, fold increase (FACI53 [3]): 4.8 fold

Molecule: CCCCCCCCCC(=O)SCCNC(=O)CCNC(=O)[C@H](O)C(C)(C)COP(=O)(O)OP(=O)(O)OC[C@H]1O[C@@H](n2cnc3c(N)ncnc32)[C@H](O)[C@@H]1OP(=O)(O)O [C10:0-CoA]
Kd (FACI-24 [1]; [5]): 61.8 ± 2.49 nM

B1: FACI-53: badan derivative of A53C-bovine ACBP (Fluorescent Acyl-CoA Indicator 53) (conjugate, UniProt P07107 2-87, looked up, variant A53C)
Acyl-CoA-binding protein: T1 sequence (P07107 2-87 M25C) with C24M, A53C
modifications: badan label
Emission maximum of FACI53 on titration with ligand (FACI53 [3]; FIG. 3): 487 nm
Fluorescence emission maximum of FACI-53, no ligand present (FACI53 [3]; no ligand): 525 nm

More lines, main results first:

Kd (FACI-24 [1]; [5]): 1.65 ± 0.83 nM
Molecule: CCCCCCCCCCCCCCCCCC(=O)SCCNC(=O)CCNC(=O)[C@H](O)C(C)(C)COP(=O)(O)OP(=O)(O)OC[C@H]1O[C@@H](n2cnc3c(N)ncnc32)[C@H](O)[C@@H]1OP(=O)(O)O [C18:0-CoA]

Kd (FACI-24 [1]; [5]): 2450 ± 249 nM
Kd (FACI-24 [1]; read-out: Kd for binding to FACI-24): 2500 nM and 2000 nM
Fold increase in FACI-24 fluorescence emission at 460 nm (FACI-24 [2]; emission at 460 nm): 3 fold
Downshift in emission maximum of FACI-24 (FACI-24 [2]): 0 nm
Magnitude of emission of FACI-53, fold increase (FACI53 [3]): 1.1 fold
Fluorescence emission maximum of FACI-53 with ligand (FACI53 [3]): 508 nm
Relative emission of FACI-53 at 495 nm, fold increase (FACI53 [3]): 1.5 fold
Fluorescence response of FACI-53 (FACI53 [3]; listed as CoA): hardly responded
Molecule: CC(C)(COP(=O)(O)OP(=O)(O)OC[C@H]1O[C@@H](n2cnc3c(N)ncnc32)[C@H](O)[C@@H]1OP(=O)(O)O)[C@@H](O)C(=O)NCCC(=O)NCCS [CoASH, Coenzyme A]
Fluorescence response of FACI-24 (FACI-24 [2]): Neither FACI24 or FACI53 respond significantly
Fluorescence response of FACI-53 (FACI53 [3]; listed as free CoA): Neither FACI24 or FACI53 respond significantly
Kd (native bovine ACBP): 2000 nM

Kd (FACI-24 [1]; [5]): 1500 ± 223 nM
Downshift in emission maximum of FACI-24 (FACI-24 [2]): 16 nm
Magnitude of emission of FACI-53, fold increase (FACI53 [3]): 1.8 fold
Fluorescence emission maximum of FACI-53 with ligand (FACI53 [3]): 503 nm
Relative emission of FACI-53 at 495 nm, fold increase (FACI53 [3]): 2.8 fold
Molecule: CCCC(=O)SCCNC(=O)CCNC(=O)[C@H](O)C(C)(C)COP(=O)(O)OP(=O)(O)OC[C@H]1O[C@@H](n2cnc3c(N)ncnc32)[C@H](O)[C@@H]1OP(=O)(O)O [C4:0-CoA]

Kd (FACI-24 [1]; [5]): 1.66 ± 0.26 nM
Kd (FACI-24 [1]; titration equilibrium analysis, >0.1 M salt, read-out: KD for binding to FACI24): 1.7 nM
Molecule: CCCCCCCCCCCCCC(=O)SCCNC(=O)CCNC(=O)[C@H](O)C(C)(C)COP(=O)(O)OP(=O)(O)OC[C@H]1O[C@@H](n2cnc3c(N)ncnc32)[C@H](O)[C@@H]1OP(=O)(O)O [C14:0-CoA]
Kd (native bovine ACBP; isothermal titration microcalorimetry, >0.1 M salt): 16 nM

Emission maximum of FACI24 on titration with ligand (FACI-24 [2]; FIG. 2): 465 nm
Emission maximum of FACI-24 without ligand added (FACI-24 [2]; no ligand): 510 nm
B2: FACI-24: badan derivative of M24C-bovine ACBP (Fluorescent modified Acyl-CoA Indicator 24) (conjugate, UniProt P07107 2-87, looked up, variant M24C)
Acyl-CoA-binding protein: T1 sequence (P07107 2-87 M25C)
modifications: badan label
